Source: ChEMBL document CHEMBL6120973 (J Med Chem, 2024)

Columns and labels:
[1] = tested on: Human immunodeficiency virus 1; assay: Antiviral activity against wildtype HIV-1 IIIB infected in human MT4 cells assessed as protection against virus-induced cytopathic effect incubated for 5 days by MTT assay; assay type: functional, organism-based; details: Human immunodeficiency virus 1, IIIB, MT4, 120 h
[2] = tested on: Human immunodeficiency virus 1; assay: Antiviral activity against HIV-1 harboring RT E138K mutant infected in human MT4 cells assessed as protection against virus-induced cytopathic effect incubated for 5 days by MTT assay; assay type: functional, organism-based; details: Human immunodeficiency virus 1, MT4, 120 h
[3] = tested on: Human immunodeficiency virus 1; assay: Antiviral activity against HIV-1 harboring RT K103N/Y181C double mutant infected in human MT4 cells assessed as protection against virus-induced cytopathic effect incubated for 5 days by MTT assay; assay type: functional, organism-based; details: Human immunodeficiency virus 1, MT4, 120 h
[4] = tested on: Human immunodeficiency virus 1; assay: Antiviral activity against HIV-1 harboring RT Y181C mutant infected in human MT4 cells assessed as protection against virus-induced cytopathic effect incubated for 5 days by MTT assay; assay type: functional, organism-based; details: Human immunodeficiency virus 1, MT4, 120 h
[5] = Cytotoxicity against human MT4 cells assessed as reduction in cell viability measured after 5 days by MTT assay; details: MT4 cells
[6] = tested on: Human immunodeficiency virus 1; assay: Antiviral activity against HIV-1 harboring RT F227L/V106A double mutant infected in human MT4 cells assessed as protection against virus-induced cytopathic effect incubated for 5 days by MTT assay; assay type: functional, organism-based; details: Human immunodeficiency virus 1, MT4, 120 h
[7] = tested on: Human immunodeficiency virus 1; assay: Antiviral activity against HIV-1 harboring RT L100I mutant infected in human MT4 cells assessed as protection against virus-induced cytopathic effect incubated for 5 days by MTT assay; assay type: functional, organism-based; details: Human immunodeficiency virus 1, MT4, 120 h
[8] = Selectivity index, ratio of CC50 for human MT4 cells to EC50 for wild type HIV-1 IIIB infected in human MT4 cellS; details: MT4 cells
[9] = target: Human immunodeficiency virus type 1 reverse transcriptase (Human immunodeficiency virus 1, UniProt Q72547); assay: Inhibition of recombinant wild type HIV-1 Reverse transcriptase incubated for 40 mins by Pico-green reagent based fluorescence analysis
[10] = tested on: Human immunodeficiency virus 1; assay: Antiviral activity against HIV-1 harboring RT K103N mutant infected in human MT4 cells assessed as protection against virus-induced cytopathic effect incubated for 5 days by MTT assay; assay type: functional, organism-based; details: Human immunodeficiency virus 1, MT4, 120 h
[11] = tested on: Human immunodeficiency virus 1; assay: Antiviral activity against HIV-1 harboring RT Y188L mutant infected in human MT4 cells assessed as protection against virus-induced cytopathic effect incubated for 5 days by MTT assay; assay type: functional, organism-based; details: Human immunodeficiency virus 1, MT4, 120 h

COc1cc(-c2cnc(Nc3ccc(C#N)cc3)nc2Nc2c(C)cc(-c3ccncc3)cc2C)ccn1
EC50 [1]: 9 nM | EC50 [2]: 16 nM | EC50 [3]: 594 nM | EC50 [4]: 61 nM | CC50 at 120 h [5]: 59900 nM | EC50 [6]: 611 nM | EC50 [7]: 51 nM | selectivity ratio [8]: 6750 | IC50 [9]: 115 nM | EC50 [10]: 21 nM | EC50 [11]: 91 nM

Cc1cc(-c2ccncc2)cc(C)c1Nc1nc(Nc2ccc(C#N)cc2)ncc1-c1ccc(F)nc1
EC50 [1]: 9 nM | EC50 [2]: 14 nM | EC50 [3]: 480 nM | EC50 [4]: 48 nM | CC50 at 120 h [5]: 48400 nM | EC50 [6]: 1160 nM | EC50 [7]: 51 nM | selectivity ratio [8]: 5530 | IC50 [9]: 86 nM | EC50 [10]: 9 nM | EC50 [11]: 76 nM

Cc1cc(-c2ccncc2)cc(C)c1Nc1nc(Nc2ccc(C#N)cc2)ncc1-c1ccnc(F)c1
EC50 [1]: 8 nM | EC50 [2]: 8 nM | EC50 [3]: 425 nM | EC50 [4]: 45 nM | CC50 at 120 h [5]: > 256000 nM | EC50 [6]: 1370 nM | EC50 [7]: 94 nM | selectivity ratio [8]: > 31500 | IC50 [9]: 111 nM | EC50 [10]: 7 nM | EC50 [11]: 45 nM

Cc1cc(-c2ccncc2)cc(C)c1Nc1nc(Nc2ccc(C#N)cc2)ncc1-c1ccsc1
EC50 [1]: 6 nM | EC50 [2]: 43 nM | EC50 [3]: 259 nM | EC50 [4]: 41 nM | CC50 at 120 h [5]: > 264000 nM | EC50 [6]: 453 nM | EC50 [7]: 34 nM | selectivity ratio [8]: > 45200 | IC50 [9]: 72 nM | EC50 [10]: 8 nM | EC50 [11]: 47 nM

Cc1cc(-c2ccncc2)cc(C)c1Nc1nc(Nc2ccc(C#N)cc2)ncc1-c1ccco1
EC50 [1]: 4 nM | EC50 [2]: 7 nM | EC50 [3]: 102 nM | EC50 [4]: 24 nM | CC50 at 120 h [5]: 7970 nM | EC50 [6]: 142 nM | EC50 [7]: 7 nM | selectivity ratio [8]: 2060 | IC50 [9]: 84 nM | EC50 [10]: 3 nM | EC50 [11]: 15 nM

Cc1ccc(-c2cnc(Nc3ccc(C#N)cc3)nc2Nc2c(C)cc(-c3ccncc3)cc2C)cn1
EC50 [1]: 5 nM | EC50 [2]: 7 nM | EC50 [3]: 401 nM | EC50 [4]: 47 nM | CC50 at 120 h [5]: 198000 nM | EC50 [6]: 496 nM | EC50 [7]: 49 nM | selectivity ratio [8]: 38900 | IC50 [9]: 132 nM | EC50 [10]: 6 nM | EC50 [11]: 54 nM

Cc1cc(-c2ccncc2)cc(C)c1Nc1nc(Nc2ccc(C#N)cc2)ncc1-c1ccc(N)nc1
EC50 [1]: 8 nM | EC50 [2]: 11 nM | EC50 [3]: 156 nM | EC50 [4]: 41 nM | CC50 at 120 h [5]: 4870 nM | EC50 [6]: 1140 nM | EC50 [7]: 39 nM | selectivity ratio [8]: 575 | IC50 [9]: 94 nM | EC50 [10]: 11 nM | EC50 [11]: 50 nM

Cc1cc(-c2ccncc2)cc(C)c1Nc1nc(Nc2ccc(C#N)cc2)ncc1-c1cccs1
EC50 [1]: 11 nM | EC50 [2]: 12 nM | EC50 [3]: 148 nM | EC50 [4]: 39 nM | CC50 at 120 h [5]: > 264000 nM | EC50 [6]: 136 nM | EC50 [7]: 18 nM | selectivity ratio [8]: > 24100 | IC50 [9]: 75 nM | EC50 [10]: 5 nM | EC50 [11]: 29 nM

Cc1cc(-c2ccncc2)cc(C)c1Nc1nc(Nc2ccc(C#N)cc2)ncc1-c1cncc(Cl)c1
EC50 [1]: 8 nM | EC50 [2]: 45 nM | EC50 [3]: 982 nM | EC50 [4]: 78 nM | CC50 at 120 h [5]: > 248000 nM | EC50 [6]: 1530 nM | EC50 [7]: 117 nM | selectivity ratio [8]: > 32800 | IC50 [9]: 197 nM | EC50 [10]: 37 nM | EC50 [11]: 121 nM

Cc1cc(-c2ccncc2)cc(C)c1Nc1nc(Nc2ccc(C#N)cc2)ncc1-c1ccnc(Cl)c1
EC50 [1]: 6 nM | EC50 [2]: 26 nM | EC50 [3]: 597 nM | EC50 [4]: 56 nM | CC50 at 120 h [5]: 158000 nM | EC50 [6]: 1760 nM | EC50 [7]: 55 nM | selectivity ratio [8]: 27300 | IC50 [9]: 98 nM | EC50 [10]: 19 nM | EC50 [11]: 83 nM

Cc1cc(-c2cnc(Nc3ccc(C#N)cc3)nc2Nc2c(C)cc(-c3ccncc3)cc2C)ccn1
EC50 [1]: 9 nM | EC50 [2]: 29 nM | EC50 [3]: 942 nM | EC50 [4]: 75 nM | CC50 at 120 h [5]: 14900 nM | EC50 [6]: 1330 nM | EC50 [7]: 71 nM | selectivity ratio [8]: 1630 | IC50 [9]: 127 nM | EC50 [10]: 21 nM | EC50 [11]: 93 nM
